For data set [1], the target named is T1, C-C chemokine receptor type 5 (Homo sapiens, UniProt P51681). The data set is described as follows: Inhibition over 48 hr of BAL strain HIV infection of HeLa Magi cells expressing CCR5. In kind it is functional, cell-based.
Target sequence in this assay (P51681 whole entry, looked up): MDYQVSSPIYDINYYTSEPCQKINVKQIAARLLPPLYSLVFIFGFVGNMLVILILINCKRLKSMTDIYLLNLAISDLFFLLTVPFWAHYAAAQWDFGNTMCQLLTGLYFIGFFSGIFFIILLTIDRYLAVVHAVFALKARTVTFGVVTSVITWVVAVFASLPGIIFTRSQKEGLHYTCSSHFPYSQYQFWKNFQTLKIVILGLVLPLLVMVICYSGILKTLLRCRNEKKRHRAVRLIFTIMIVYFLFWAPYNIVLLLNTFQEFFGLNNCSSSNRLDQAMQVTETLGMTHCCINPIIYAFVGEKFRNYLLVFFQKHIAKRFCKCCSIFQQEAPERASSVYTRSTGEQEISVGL
Data set [2] in a line: Tested for antiviral activity in peripheral blood mononuclear cells (PBMC). In kind it is functional.
Data set [3] can be described thus: Pharmacokinetic parameter expressed as plasma clearance in rat. In kind it is ADME, organism-based. To be noted: read-out: Clp.
Data set [4] can be described thus: Maximum plasma concentration was evaluated in rat. In kind it is ADME, organism-based.
A short description of data set [5]: Bioavailability in rat. In kind it is ADME, organism-based. To be noted: in vivo.
Data set [6] is described as follows: Half life was evaluated in rat. In kind it is ADME, organism-based. To be noted: in vivo.
The target of data set [7] is T1, C-C chemokine receptor type 5. The experiment in a line: Displacement inhibition of 125-I labeled MIP-alpha from CCR5 receptor expressed on CHO cell membranes.
Target sequence in this assay (P51681 whole entry): as the sequence (P51681 whole entry, looked up) above
The target is the same in data set [8]. The experiment in a line: Compound tested for inhibiting the displacement of 125-I labeled MIP-alpha from CCR5 receptor expressed on CHO cell membranes at 1000 nM.
Target sequence in this assay (P51681 whole entry, looked up): as above
The target is the same in data set [9]. The experiment in a line: Inhibition over 48 hr of BAL strain HIV infection of HeLa Magi cells expressing CCR5; Not active. In kind it is functional, cell-based.
Target sequence in this assay (P51681 whole entry): as the sequence (P51681 whole entry, looked up) above
The target is the same in data set [10]. The data set is described as follows: Inhibition over 48 hr of BAL strain HIV infection of HeLa Magi cells expressing CCR5; not active. In kind it is functional, cell-based.
Target sequence in this assay (P51681 whole entry): as the sequence (P51681 whole entry, looked up) above

The structures appear in SMILES notation. pIC50: −log10 of the molar value.

For orientation: IC90 means the point of the concentration-response curve where the effect stands at 90%. Broadly, the IC95 is the concentration needed for an effect of 95%. High values mean weaker potency, low ones greater potency. In the case of `C=CCN(C(=O)OCc1ccc([N+](=O)[O-])cc1)C1CCN(C[C@H]2CN(C(=O)c3ccccc3Cl)C[C@@H]2c2ccccc2)CC1`, the IC90 in data set [1] amounted to 1 nM. For the same molecule, in [2], the IC95 was 31 nM.

For orientation: Cmax means the highest concentration seen after dosing. A word on the bioavailability: it is dose-corrected exposure relative to a reference, in per cent. As a reminder, the half-life is the time needed for the level to fall by half in the phase considered. A higher half-life goes with slow loss. In general, pIC50 refers to −log10 of the IC50, conventionally taken in molar units. As for `CCN(c1ncccn1)C1CCN(C[C@H]2CN([C@H](CC3CCC3)C(=O)O)C[C@@H]2c2cccc(F)c2)CC1`, the clearance in [3] stood at 1.56 L/h/kg. This molecule had a Cmax in data set [4] of 0.21 µM. In [5], this molecule yielded a bioavailability of 33%. For the same molecule, the half-life in data set [6] was 1.1 h. The pIC50 in data set [7] is 8.82.

On to `C=CCN(c1ccc(C(F)(F)F)cn1)C1CCN(C[C@H]2CN(C(=O)C3CCCCC3)C[C@@H]2c2ccccc2)CC1`, for which, in [7], the pIC50 was 7.68.

In turn, `O=C(C1CCCCC1)N1C[C@H](CN2CCC(N(CC3CC3)c3ccccn3)CC2)[C@@H](c2ccccc2)C1` gave a pIC50 in data set [7] of 8.05.

`C=CCN(c1cccnc1)C1CCN(C[C@H]2CN(C(=O)C3CCCCC3)C[C@@H]2c2ccccc2)CC1` had a pIC50 in data set [7] of 7.64. This pIC50 lies 0.41 log units lower than the previous one.

Turning to `CCCN(c1ncc(F)cn1)C1CCN(C[C@H]2CN([C@H](CC3CCC3)C(=O)O)C[C@@H]2c2cccc(F)c2)CC1`, the pIC50 in [7] is 9.40. This pIC50 lies 1.76 log units higher than the previous one.

Turning to `CCCN(c1ccccn1)C1CCN(C[C@H]2CN(C(=O)C3CCCCC3)C[C@@H]2c2ccccc2)CC1`, in [7], the pIC50 was 7.92.

For `CCCN(c1nccc(OC)n1)C1CCN(C[C@H]2CN([C@H](CC3CCC3)C(=O)O)C[C@@H]2c2cccc(F)c2)CC1`, in [7], the pIC50 was 9.10.

Molecule `CCCN(c1ccccn1)C1CCN(C[C@H]2CN(C(=O)N3CCCC3)C[C@@H]2c2ccccc2)CC1` had a pIC50 in data set [7] of 8.05.

The inhibition is the drop in the measured response relative to a control, in per cent. High values mean strong suppression, low ones little suppression. `O=C(C1CCCCC1)N1C[C@H](CN2CCC(N(Cc3ccccc3)c3ccccn3)CC2)[C@@H](c2ccccc2)C1` gave an inhibition in data set [8] of 78%.

Turning to `O=C(O)[C@@H](CC1CCC1)N1C[C@H](CN2CCC(N(CC3CC3)c3ncccn3)CC2)[C@@H](c2cccc(F)c2)C1`, the clearance in [3] worked out at 1.68 L/h/kg. In [6], this molecule had a half-life of 0.7 h. For the same molecule, the pIC50 in data set [7] is 8.96.

For the molecule `CCCN(c1ncccn1)C1CCN(C[C@H]2CN([C@H](CC3CCC3)C(=O)O)C[C@@H]2c2cccc(F)c2)CC1`, in data set [3], the clearance was 1.68 L/h/kg. The same molecule gave a Cmax in [4] of 0.256 µM. Further, the bioavailability in [5] was found to be 29%. For the same molecule, the half-life in data set [6] is 1.1 h. This molecule also had a pIC50 in [7] of 8.74.

With `CCCN(c1ccccn1)C1CCN(C[C@H]2CN(C(=O)C3CCC3)C[C@@H]2c2ccccc2)CC1`, the pIC50 in [7] is 8.00.

Consider `CCCN(c1ncccn1)C1CCN(C[C@H]2CN([C@@H](C(=O)O)C3CCCCC3)C[C@@H]2c2ccccc2)CC1`, for which, in data set [3], the clearance stood at 1.02 L/h/kg. Also, the Cmax in data set [4] worked out at 0.049 µM. The same molecule had a bioavailability in data set [5] of 8%. In addition, the pIC50 in data set [7] is 8.18.

Consider `C=CCN(c1ncccn1)C1CCN(C[C@H]2CN(C(=O)C3CCCCC3)C[C@@H]2c2ccccc2)CC1`, for which the pIC50 in [7] was 7.92.

As for `CCCN(c1cccnc1)C1CCN(C[C@H]2CN([C@@H](C(=O)O)C3CCCCC3)C[C@@H]2c2ccccc2)CC1`, in data set [3], the clearance was 6.36 L/h/kg. In data set [4], the highest level (Cmax) was 0.019 µM. The bioavailability in [5] turned out to be 8%. Also, the pIC50 in data set [7] is 8.30.

In data set [7], `C=CCN(c1ccccn1)C1CCN(C[C@H]2CN(C(=O)C3CCCCC3)C[C@@H]2c2ccccc2)CC1` had a pIC50 of 8.22.

In turn, `C=CCN(c1ccccc1)C1CCN(C[C@H]2CN(C(=O)C3CCCCC3)C[C@@H]2c2ccccc2)CC1` had a pIC50 in data set [7] of 7.38. In data set [9], the IC50 entry is on record as “Not Active”.

For the molecule `CCCN(c1ncc(C(F)(F)F)cn1)C1CCN(C[C@H]2CN([C@H](CC3CCC3)C(=O)O)C[C@@H]2c2cccc(F)c2)CC1`, the clearance in data set [3] worked out at 0.54 L/h/kg. The molecule also had a Cmax in data set [4] of 0.433 µM. In addition, the bioavailability in data set [5] turned out to be 72%. Besides, in data set [6], the half-life is 2.8 h. For the same molecule, the negative logarithm of the IC50 (pIC50) in data set [7] is 9.30.

Regarding `C=CCN(c1ccncc1)C1CCN(C[C@H]2CN(C(=O)C3CCCCC3)C[C@@H]2c2ccccc2)CC1`, the pIC50 in data set [7] is 7.18. In [10], the IC50 entry is “Not Active”.

Regarding `CCCN(c1cncnc1)C1CCN(C[C@H]2CN([C@H](CC3CCC3)C(=O)O)C[C@@H]2c2cccc(F)c2)CC1`, the clearance in data set [3] is 4.86 L/h/kg. Also, the highest level in data set [4] (Cmax) was 0.028 µM. Besides, in [5], the bioavailability turned out to be 8%. In data set [6], the half-life was 0.3 h. Besides, in data set [7], the pIC50 was 8.77.

On to `CCCN(c1ccncn1)C1CCN(C[C@H]2CN([C@H](CC3CCC3)C(=O)O)C[C@@H]2c2cccc(F)c2)CC1`, for which the clearance in data set [3] was found to be 5.4 L/h/kg. Besides, in data set [6], the half-life was 0.9 h. This molecule also gave a pIC50 in data set [7] of 8.92.

For the molecule `CCCN(c1ccccn1)C1CCN(C[C@H]2CN(C(=O)c3ccccc3Cl)C[C@@H]2c2ccccc2)CC1`, the pIC50 in data set [7] was 7.85.

Molecule `CCCCCCN(c1ccccn1)C1CCN(C[C@H]2CN(C(=O)C3CCCCC3)C[C@@H]2c2ccccc2)CC1` came in with an inhibition in data set [8] of 64%.

Consider `CCCN(c1ccccn1)C1CCN(C[C@H]2CN([C@@H](C(=O)O)C3CCCCC3)C[C@@H]2c2ccccc2)CC1`, for which the clearance in data set [3] was determined as 3.18 L/h/kg. Besides, the peak level in [4] (Cmax) was 0.053 µM. This molecule showed a bioavailability in data set [5] of 20%. In [7], this molecule showed a pIC50 of 8.41.

For `CCCN(c1ncccn1)C1CCN(C[C@H]2CN([C@@H](C(=O)O)C3CCCCC3)C[C@@H]2c2cccc(F)c2)CC1`, in data set [3], the clearance is 0.78 L/h/kg. This molecule gave a Cmax in data set [4] of 0.14 µM. The molecule also came in with a bioavailability in [5] of 20%. The molecule further showed a pIC50 in data set [7] of 8.80.

For the molecule `CCCN(c1nccc(C(F)(F)F)n1)C1CCN(C[C@H]2CN([C@H](CC3CCC3)C(=O)O)C[C@@H]2c2cccc(F)c2)CC1`, the clearance in [3] stood at 0.78 L/h/kg. In addition, in data set [4], the peak level (Cmax) was 0.177 µM. The bioavailability in [5] was 25%. In [6], this molecule showed a half-life of 1.5 h. This molecule also gave a pIC50 in data set [7] of 8.92.

Source of the values: ChEMBL document CHEMBL1136548, “1,3,4 Trisubstituted pyrrolidine CCR5 receptor antagonists bearing 4-aminoheterocycle substituted piperidine side chains” (Bioorg Med Chem Lett, 2003).
